Laboratory results taken from patent publication US9062071B2, “Substituted piperidines as HDM2 inhibitors” (Merck Sharp & Dohme Corp, priority 2011, dated 2015).

Target: HDM2 protein (Homo sapiens, UniProt Q00987)
Assay: fluorescence polarization screening assay (FP IC50)
Format: binding
Conditions: class symbols
Procedure: The compounds were evaluated to determine activity at the HDM2 protein by known methods such as the fluorescence polarization screening assay that measures the inhibitory concentration that achieves 50% of maximal activity (FP IC50) and the dissociation constant for inhibitor binding (FP Ki). [Zhang et al., J. Analytical Biochemistry 331: 138-146 (2004)].

Chain of HDM2 protein (Q00987 whole entry): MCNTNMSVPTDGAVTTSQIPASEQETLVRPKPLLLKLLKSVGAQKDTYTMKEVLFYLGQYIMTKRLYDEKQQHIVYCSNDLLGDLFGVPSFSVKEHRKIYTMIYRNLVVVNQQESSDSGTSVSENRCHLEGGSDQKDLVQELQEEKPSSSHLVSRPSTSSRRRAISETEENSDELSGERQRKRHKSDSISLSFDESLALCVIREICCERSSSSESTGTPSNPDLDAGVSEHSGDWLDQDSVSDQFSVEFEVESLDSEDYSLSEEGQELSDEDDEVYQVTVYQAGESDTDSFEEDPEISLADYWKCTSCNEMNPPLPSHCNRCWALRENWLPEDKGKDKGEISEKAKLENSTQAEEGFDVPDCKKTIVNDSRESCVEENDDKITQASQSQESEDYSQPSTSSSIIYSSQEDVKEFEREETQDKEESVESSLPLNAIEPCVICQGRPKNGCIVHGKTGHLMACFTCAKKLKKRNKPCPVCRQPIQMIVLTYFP

Question: Which IC50 does the source give for `CCC[C@H]1N(C(=O)c2ncccc2C(F)(F)F)CCC[C@@]1(Oc1csc(C(F)(F)F)c1)C(=O)N1CCc2cc(Cl)ccc2C1CO` (stereo partly drawn) [Compound A105, (6-chloro-2-{[(2R,3S)-2-propyl-1-{[3-(trifluoromethyl)pyridin-2-yl]carbonyl}-3-{[5-(trifluoromethyl)thiophen-3-yl]oxy}piperidin-3-yl]carbonyl}-1,2,3,4-tetrahydroisoquinolin-1-yl)methanol] here?
Answer: The IC50 was 101 to 20000 nM.

Question: With `CCC[C@H]1N(C(=O)c2ncccc2C(F)(F)F)CCC[C@@]1(Oc1csc(C(F)(F)F)c1)C(=O)N1CCc2cc(Cl)ccc2C1COC` (stereo partly drawn) [Compound A106, 6-chloro-1-(methoxymethyl)-2-{[(2R,3S)-2-propyl-1-{[3-(trifluoromethyl)pyridin-2-yl]carbonyl}-3-{[5-(trifluoromethyl)thiophen-3-yl]oxy}piperidin-3-yl]carbonyl}-1,2,3,4-tetrahydroisoquinoline] as the compound, how does the IC50 read?
Answer: Its IC50 is 1 to 100 nM.

Question: Which IC50 does the source give for `CCC[C@H]1N(C(=O)c2ncccc2C(F)(F)F)CCC[C@@]1(Oc1csc(C(F)(F)F)c1)C(=O)N1CCc2cc(Cl)ccc2C1COC` (stereo partly drawn) [Compound A107, 6-chloro-1-(methoxymethyl)-2-{[(2R,3S)-2-propyl-1-{[3-(trifluoromethyl)pyridin-2-yl]carbonyl}-3-{[5-(trifluoromethyl)thiophen-3-yl]oxy}piperidin-3-yl]carbonyl}-1,2,3,4-tetrahydroisoquinoline] here?
Answer: Its IC50 is 101 to 20000 nM.

Question: For `CCC[C@H]1N(C(=O)c2ncccc2C(F)(F)F)CCC[C@@]1(Oc1csc(C(F)(F)F)c1)C(=O)N1CCc2cc(Cl)ccc2C1CC(C)(C)C(=O)O` (stereo partly drawn) [Compound A108, 3-(6-chloro-2-{[(2R,3S)-2-propyl-1-{[3-(trifluoromethyl)pyridin-2-yl]carbonyl}-3-{[5-(trifluoromethyl)thiophen-3-yl]oxy}piperidin-3-yl]carbonyl}-1,2,3,4-tetrahydroisoquinolin-1-yl)-2,2-dimethylpropanoic acid], which IC50 is on record?
Answer: The IC50 was 1 to 100 nM.

Question: `CCC[C@H]1N(C(=O)c2ncccc2C(F)(F)F)CCC[C@@]1(Oc1csc(C(F)(F)F)c1)C(=O)N1CCc2cc(Cl)ccc2C1(CCO)C(N)=O` (stereo partly drawn) [Compound A109, 6-chloro-1-(2-hydroxyethyl)-2-{[(2R,3S)-2-propyl-1-{[3-(trifluoromethyl)pyridin-2-yl]carbonyl}-3-{[5-(trifluoromethyl)thiophen-3-yl]oxy}piperidin-3-yl]carbonyl}-1,2,3,4-tetrahydroisoquinoline-1-carboxamide] was tested. Which IC50 did it give?
Answer: The IC50 was 1 to 100 nM.

Question: For `CCCC1N(C(=O)c2ncccc2C(F)(F)F)CCCC1(Oc1ccc(OC(F)(F)F)cc1)C(=O)N1CCc2cc(F)ccc2C1` (stereo not drawn) [Compound A110, 6-fluoro-2-[(2-propyl-3-[4-(trifluoromethoxy)phenoxy]-1-{[3-(trifluoromethyl)pyridin-2-yl]carbonyl}piperidin-3-yl)carbonyl]-1,2,3,4-tetrahydroisoquinoline], which IC50 is on record?
Answer: Its IC50 is 101 to 20000 nM.

Question: Which IC50 does the source give for `CCC[C@H]1N(C(=O)c2ncccc2C(F)(F)F)CCC[C@@]1(Oc1ccc(OC(F)(F)F)cc1)C(=O)N1CCc2cc(Cl)ccc2[C@@H]1CCC(=O)O` [Compound A111] here?
Answer: The IC50 was 1 to 100 nM.

Question: `O=C(c1ncccc1C(F)(F)F)N1CCC[C@@](Oc2csc(C(F)(F)F)c2)(C(=O)N2CCc3cc(Cl)ccc3C2)[C@H]1CCNC1CCOCC1` [Compound A112, N-{2-[(2R,3S)-3-[(6-chloro-3,4-dihydroisoquinolin-2(1H)-yl)carbonyl]-1-{[3-(trifluoromethyl)pyridin-2-yl]carbonyl}-3-{[5-(trifluoromethyl)thiophen-3-yl]oxy}piperidin-2-yl]ethyl}tetrahydro-2H-pyran-4-amine] was tested. Which IC50 did it give?
Answer: The IC50 was 1 to 100 nM.

Question: For `C=CC[C@H]1N(C(=O)c2ncccc2C(F)(F)F)CCC[C@@]1(Oc1csc(C(F)(F)F)c1)C(=O)N1CCc2cc(Cl)ccc2C1C(=O)O` (stereo partly drawn) [Compound A113, 6-chloro-2-{[(2R,3S)-2-prop-2-en-1-yl-1-{[3-(trifluoromethyl)pyridin-2-yl]carbonyl}-3-{[5-(trifluoromethyl)thiophen-3-yl]oxy}piperidin-3-yl]carbonyl}-1,2,3,4-tetrahydroisoquinoline-1-carboxylic acid], which IC50 is on record?
Answer: The IC50 was 1 to 100 nM.

Question: With `CCN1CCN(CC[C@H]2N(C(=O)c3ncccc3C(F)(F)F)CCC[C@@]2(Oc2csc(C(F)(F)F)c2)C(=O)N2CCc3cc(Cl)ccc3C2)CC1` [Compound A114, 6-chloro-2-{[(2R,3S)-2-[2-(4-ethylpiperazin-1-yl)ethyl]-1-{[3-(trifluoromethyl)pyridin-2-yl]carbonyl}-3-{[5-(trifluoromethyl)thiophen-3-yl]oxy}piperidin-3-yl]carbonyl}-1,2,3,4-tetrahydroisoquinoline] as the compound, how does the IC50 read?
Answer: Its IC50 is 1 to 100 nM.

Question: With `CN1CCN(CC[C@H]2N(C(=O)c3ncccc3C(F)(F)F)CCC[C@@]2(Oc2csc(C(F)(F)F)c2)C(=O)N2CCc3cc(Cl)ccc3C2)CC1` [Compound A115, 6-chloro-2-{[(2R,3S)-2-[2-(4-methylpiperazin-1-yl)ethyl]-1-{[3-(trifluoromethyl)pyridin-2-yl]carbonyl}-3-{[5-(trifluoromethyl)thiophen-3-yl]oxy}piperidin-3-yl]carbonyl}-1,2,3,4-tetrahydroisoquinoline] as the compound, how does the IC50 read?
Answer: Its IC50 is 1 to 100 nM.

Question: `O=C(c1ncccc1C(F)(F)F)N1CCC[C@@](Oc2csc(C(F)(F)F)c2)(C(=O)N2CCc3cc(Cl)ccc3C2)[C@H]1CCN1CCN(CC2CC2)CC1` [Compound A116, 6-chloro-2-{[(2R,3S)-2-{2-[4-(cyclopropylmethyl)piperazin-1-yl]ethyl}-1-{[3-(trifluoromethyl)pyridin-2-yl]carbonyl}-3-{[5-(trifluoromethyl)thiophen-3-yl]oxy}piperidin-3-yl]carbonyl}-1,2,3,4-tetrahydroisoquinoline] was tested. Which IC50 did it give?
Answer: The IC50 was 1 to 100 nM.

Question: How did the IC50 turn out when `COCCN(C)CC[C@H]1N(C(=O)c2ncccc2C(F)(F)F)CCC[C@@]1(Oc1csc(C(F)(F)F)c1)C(=O)N1CCc2cc(Cl)ccc2C1` [Compound A117, 2-[(2R,3S)-3-[(6-chloro-3,4-dihydroisoquinolin-2(1H)-yl)carbonyl]-1-{[3-(trifluoromethyl)pyridin-2-yl]carbonyl}-3-{[5-(trifluoromethyl)thiophen-3-yl]oxy}piperidin-2-yl]-N-(2-methoxyethyl)-N-methylethanamine] was run?
Answer: Its IC50 is 1 to 100 nM.

Question: With `COCCN1CCN(CC[C@H]2N(C(=O)c3ncccc3C(F)(F)F)CCC[C@@]2(Oc2csc(C(F)(F)F)c2)C(=O)N2CCc3cc(Cl)ccc3C2)CC1` [Compound A118, 6-chloro-2-{[(2R,3S)-2-{2-[4-(2-methoxyethyl)piperazin-1-yl]ethyl}-1-{[3-(trifluoromethyl)pyridin-2-yl]carbonyl}-3-{[5-(trifluoromethyl)thiophen-3-yl]oxy}piperidin-3-yl]carbonyl}-1,2,3,4-tetrahydroisoquinoline] as the compound, how does the IC50 read?
Answer: The IC50 was 1 to 100 nM.

Question: Which IC50 does the source give for `CC(C)(C(=O)O)C1CCN(CC[C@H]2N(C(=O)c3ncccc3C(F)(F)F)CCC[C@@]2(Oc2csc(C(F)(F)F)c2)C(=O)N2CCc3cc(Cl)ccc3C2)CC1` [Compound A119, 2-(1-{2-[(2R,3S)-3-[(6-chloro-3,4-dihydroisoquinolin-2(1H)-yl)carbonyl]-1-{[3-(trifluoromethyl)pyridin-2-yl]carbonyl}-3-{[5-(trifluoromethyl)thiophen-3-yl]oxy}piperidin-2-yl]ethyl}piperidin-4-yl)-2-methylpropanoic acid] here?
Answer: Its IC50 is 1 to 100 nM.

Question: With `CCC[C@H]1N(C(=O)c2cnccc2C(F)(F)F)CCC[C@@]1(Oc1csc(C(F)(F)F)c1)C(=O)N1Cc2ccccc2C[C@H]1CO` [Compound A120, [(3S)-2-{[(2R,3S)-2-propyl-1-{[4-(trifluoromethyl)pyridin-3-yl]carbonyl}-3-{[5-(trifluoromethyl)thiophen-3-yl]oxy}piperidin-3-yl]carbonyl}-1,2,3,4-tetrahydroisoquinolin-3-yl]methanol] as the compound, how does the IC50 read?
Answer: Its IC50 is 101 to 20000 nM.

Question: With `CCC[C@H]1N(C(=O)c2cnccc2C(F)(F)F)CCC[C@@]1(Oc1csc(C(F)(F)F)c1)C(=O)N1CCc2cccc(O)c2C1` [Compound A121, 2-{[(2R,3S)-2-propyl-1-{[4-(trifluoromethyl)pyridin-3-yl]carbonyl}-3-{[5-(trifluoromethyl)thiophen-3-yl]oxy}piperidin-3-yl]carbonyl}-1,2,3,4-tetrahydroisoquinolin-8-ol] as the compound, how does the IC50 read?
Answer: The IC50 was 101 to 20000 nM.

Question: For `CCC[C@H]1N(C(=O)c2cnccc2C(F)(F)F)CCC[C@@]1(Oc1csc(C(F)(F)F)c1)C(=O)N1CCc2ccccc2C1CC(=O)O` (stereo partly drawn) [Compound A122, (2-{[(2R,3S)-2-propyl-1-{[4-(trifluoromethyl)pyridin-3-yl]carbonyl}-3-{[5-(trifluoromethyl)thiophen-3-yl]oxy}piperidin-3-yl]carbonyl}-1,2,3,4-tetrahydroisoquinolin-1-yl)acetic acid], which IC50 is on record?
Answer: The IC50 was 1 to 100 nM.

Question: `CCC[C@H]1N(C(=O)c2ncccc2C(F)(F)F)CCC[C@@]1(Oc1csc(C(F)(F)F)c1)C(=O)N1Cc2ccc(F)cc2C[C@@H]1C(=O)O` [Compound A123, (3R)-6-fluoro-2-{[(2R,3S)-2-propyl-1-{[3-(trifluoromethyl)pyridin-2-yl]carbonyl}-3-{[5-(trifluoromethyl)thiophen-3-yl]oxy}piperidin-3-yl]carbonyl}-1,2,3,4-tetrahydroisoquinoline-3-carboxylic acid] was tested. Which IC50 did it give?
Answer: Its IC50 is 1 to 100 nM.

Question: For `CCC[C@H]1N(C(=O)c2ncccc2C(F)(F)F)CCC[C@@]1(Oc1csc(C(F)(F)F)c1)C(=O)N1Cc2ccc(F)cc2C[C@@H]1CCC(=O)O` [Compound A124, 3-[(3S)-6-fluoro-2-{[(2R,3S)-2-propyl-1-{[3-(trifluoromethyl)pyridin-2-yl]carbonyl}-3-{[5-(trifluoromethyl)thiophen-3-yl]oxy}piperidin-3-yl]carbonyl}-1,2,3,4-tetrahydroisoquinolin-3-yl]propanoic acid], which IC50 is on record?
Answer: The IC50 was 1 to 100 nM.

Question: With `CCC[C@H]1N(C(=O)c2ncccc2C(F)(F)F)CCC[C@@]1(Oc1csc(C(F)(F)F)c1)C(=O)N1Cc2ccc(F)cc2C[C@H]1C(=O)O` [Compound A125, (3S)-6-fluoro-2-{[(2R,3S)-2-propyl-1-{[3-(trifluoromethyl)pyridin-2-yl]carbonyl}-3-{[5-(trifluoromethyl)thiophen-3-yl]oxy}piperidin-3-yl]carbonyl}-1,2,3,4-tetrahydroisoquinoline-3-carboxylic acid] as the compound, how does the IC50 read?
Answer: Its IC50 is 1 to 100 nM.
